According to patent US9879050B2, “Substituted urea depsipeptide analogs as activators of the CLPP endopeptidase” (priority 2013, dated 2018):
Values after ≈ are worked out from the molar mass of the structure shown. Where two headings read alike, the source gives them in different places. Where a SMILES comes first, the peptide text is derived from it. Bridges are numbered along the chain shown (N, C = ends). [ ]: non-standard residue; d: D form. The star is where a group is joined. Phe(3,5-F2) = N[C@@H](Cc1cc(F)cc(F)c1)C(=O)O; Heptenoyl(2E) = CCCC/C=C/C(=O)*; aThr = C[C@H](O)[C@H](N)C(=O)O; Pip = O=C(O)[C@@H]1CCCCN1

Assays:
S. pneumoniae R6 = test: Minimal inhibitory concentration, microbroth dilution; format: cell-based; conditions: Streptococcus pneumoniae, R6; read-out: Minimal Inhibitory Concentration S. pneumoniae R6
In short: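 Twofold serial dilutions in broth per CLSI M7-A7 microbroth dilution, incubated aerobically overnight at 37° C. MIC read visually as lowest concentration preventing bacterial growth.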

S. aureus USA 300 ΔClpP = test: as above; format: cell-based, Staphylococcus aureus; conditions: ClpP inactivated strain
In short: (§1)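 MIC is recorded by eye as the lowest drug concentration that stops bacterial growth. Compound is serially diluted twofold in broth, starting at 200 μM final, and bacteria are added at roughly 10^5 cfu/mL. Incubation runs overnight at 37 °C under aerobic conditions, per CLSI guidance.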

in vitro = conditions: CD-1, mouse, microsomes, pH 7.4
Method: Compounds were initially prepared by dissolving them into DMSO at a final concentration of 10 mM. NADPH regenerating solutions A and B and mouse liver microsomes (CD-1) were obtained from BD Gentest (Woburn, Mass.). Ninety-six well deep well plates were obtained from MidWest Scientific Inc (Valley Park, Mo.).
Sample preparation for microsomal stability was modified from methods of Di, L., et al., Int J Pharm. 2005 Jun. 13; 297(1-2): 110-9. A set of incubation times of 0, 15, 30, 60, 120, and 240 minutes were used. Mouse liver microsomal solutions were prepared by adding 58 μL of concentrated human or mouse liver microsomes (20 mg/mL protein concentration) to 1.756 mL of 0.1 M potassium phosphate buffer (pH 7.4) and 5 μL of 0.5 M EDTA to make a 0.6381 mg/mL (protein) microsomal solution. NADPH regenerating agent contained 113 μL of NADPH A, 23 μL of NADPH B, and 315 μL of 0.1 M potassium phosphate buffer (pH 7.4). The diluted test compound solutions (2 μL) were each added directly to a 1.79 mL of liver microsomal solution. This solution was mixed and 90 μL was transferred to 6 time points plates (each in triplicate wells). For the time 0 plate, 225 μL of cold acetonitrile with internal standard ([…] warfarin) was added to each well, followed by addition of NADPH regenerating agent (22.5 μL) and no incubation. For other five time points' plate, NADPH regenerating agent (22.5 μL) was added to each well to initiate the reaction. The plates were incubated at 37° C. for the required time, followed by quenching of the reaction by adding 225 μL of cold acetonitrile with internal standard (4 μg/ml warfarin). All of the plates were sealed and mixed well at 600 rpm for 10 minutes followed by centrifugation at 4000 rpm for 20 minutes. The supernatants (120 μL) were transferred to analytical plates for analysis by LCMS. LCMS conditions were described in the materials and instrumentation section above. The metabolic stability is evaluated via the half-life from least-squares fit of the multiple time points based on first-order kinetics.

S. aureus ATCC 29213 = test: Minimal inhibitory concentration, microbroth dilution; format: cell-based; conditions: Staphylococcus aureus, ATCC29213, read-out: Minimal Inhibitory Concentration S. aureus ATCC 29213
In short: as §1

E. coli K12ΔtolC = test: as above; format: cell-based
In short: as §1

S. pneumoniae DAW27 = test: as above; format: cell-based; conditions: Streptococcus pneumoniae, DAW27, read-out: Minimal Inhibitory Concentration S. pneumoniae DAW27
In short: as §1

B. subtilis ATCC 23857 = test: as above; format: cell-based; conditions: Bacillus subtilis, ATCC23857, read-out: Minimal Inhibitory Concentration B. subtilis ATCC 23857
In short: as §1

E. faecails ATCC 33186 = test: as above; format: cell-based; conditions: Enterococcus faecalis, ATCC33186, read-out: Minimal Inhibitory Concentration E. faecails ATCC 33186
In short: as §1

S. aureus ClpP (Sa-ClpP) = target: T1, S. aureus ClpP (Sa-ClpP) (Staphylococcus aureus, UniProt Q2G036); test: ClpP activation, casein-BODIPY digestion assay (first described method); format: biochemical
T1 construct: made in house; host or cells: E. coli BL21 (DE3)
Method: The compounds were assayed in a casein digestion assay in order to determine their effect on ClpP activation. Briefly, the assay was carried out using S. aureus ClpP (“Sa-ClpP”) overexpressed in E. coli BL21 (DE3) and purified in a two-step process. Purity of the protein was assessed through SDS PAGE analysis. EC50 evaluations were conducted in triplicate in a 20 μl assay format using a method adapted from Maurizi et al. (Methods Enzymol. (1994) 244:314-331.). Each well contained 10 μM saClpP, 25 μg/ml BODIPY FL casein (Invitrogen Corporation, San Diego, Calif.), and test compound in concentrations ranging between 0-100 μM in assay buffer (50 mM Tris pH 8, 200 mM KCl, and 1 mM TCEP). The reaction took place at 37° C. Fluorescence (excitation 485 nm; emission 528 nm) was measured in five minute intervals over a 45 min period using a BioTek HT fluorescence microplate reader (BioTek Instruments, Inc., Winooski, Vt.). Velocity of each reaction was calculated and data was fit to a dose response curve using GraphPad Prism® software (GraphPad Software, Inc., La Jolla, Calif.). EC50 is the effective concentration of compound which causes 50% activation of S. aureus ClpP in the foregoing BODIPY FL casein assay.

[1] = first described ClpP activation assay (**), 10 μM saClpP, 25 μg/ml BODIPY FL casein, 37° C., read-out: ClpP Activation EC50

T1 sequence (Q2G036 whole entry): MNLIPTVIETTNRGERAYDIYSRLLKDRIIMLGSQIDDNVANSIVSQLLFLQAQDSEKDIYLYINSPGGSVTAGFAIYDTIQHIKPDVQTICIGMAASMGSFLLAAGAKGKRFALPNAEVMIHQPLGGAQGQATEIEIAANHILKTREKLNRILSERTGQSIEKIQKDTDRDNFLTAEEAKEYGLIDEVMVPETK

SMILES | MIC (S. pneumoniae R6) | Minimal Inhibitory Concentration S. aureus USA 300 ΔClpP (S. aureus USA 300 ΔClpP) | half-life (in vitro) | MIC (S. aureus ATCC 29213) | Minimal Inhibitory Concentration E. coli K12ΔtolC (E. coli K12ΔtolC) | MIC (S. pneumoniae DAW27) | MIC (B. subtilis ATCC 23857) | MIC (E. faecails ATCC 33186) | EC50 (S. aureus ClpP (Sa-ClpP); [1]) | EC50 (S. aureus ClpP (Sa-ClpP))
CCCC/C=C/C(=O)N[C@@H](Cc1cc(F)cc(F)c1)C(=O)N[C@@H]1C(=O)N2CCC[C@H]2C(=O)N2CCCC[C@H]2C(=O)N[C@@H](C)C(=O)N2CCC[C@H]2C(=O)O[C@H]1C [ADEP 2719, reference compound] ({Heptenoyl(2E)}-[Phe(3,5-F2)][aThr]P[Pip]AP; ester 2-C) | < 0.2 µM | 500 µM | 0.1 h |  |  |  |  |  |  | 
C[C@@H]1C[C@H]2C(=O)OC[C@H](NC(=O)[C@H](Cc3ccccc3)NC(=O)Nc3ccc(Cl)cc3)C(=O)N3CCC[C@H]3C(=O)N3CCCC[C@H]3C(=O)N[C@@H](C)C(=O)N2C1 [Compound 3, (S)-2-(3-(4-Chlorophenyl)Ureido)-N-((2R,6S,8aS,14aS,20S,23aS)-2,6-Dimethyl-5,8,14,19,23-Pentaoxooctadecahydro-1H,5H,14H,19H-Pyrido[2,1-I]Dipyrrolo[2,1-C:2′,1′-L][1]Oxa[4,7,10,13]Tetraazacyclohexadecin-20-Yl)-3-Phenylpropanamide] |  |  |  | 1.56 µM (≈ 1.21 µg/mL) | 25 µM | 0.2 µM (≈ 0.156 µg/mL) | 0.78 µM (≈ 0.607 µg/mL) | 0.2 µM (≈ 0.156 µg/mL) | 3.3 ± 0.2 µM | 
C[C@@H]1C[C@H]2C(=O)OC[C@H](NC(=O)[C@H](Cc3ccccc3)NC(=O)Nc3ccc(N(C)C)cc3)C(=O)N3CCC[C@H]3C(=O)N3CCCC[C@H]3C(=O)N[C@@H](C)C(=O)N2C1 [Compound 5, (S)—N-((2R,6S,8aS,14aS,20S,23aS)-2,6-Dimethyl-5,8,14,19,23-Pentaoxooctadecahydro-1H,5H,14H,19H-Pyrido[2,1-1]Dipyrrolo[2,1-C:2′,1′-L][1]Oxa[4,7,10,13]Tetraazacyclohexadecin-20-Yl)-2-(3-(4-(Dimethylamino)Phenyl)Ureido)-3-Phenylpropanamide] |  |  |  | 6.25 µM (≈ 4.92 µg/mL) | 50 µM | 0.39 µM (≈ 0.307 µg/mL) | 0.78 µM (≈ 0.614 µg/mL) | 0.78 µM (≈ 0.614 µg/mL) | 1.3 ± 0.2 µM | 
COc1ccc(NC(=O)N[C@@H](Cc2ccccc2)C(=O)N[C@H]2COC(=O)[C@@H]3C[C@@H](C)CN3C(=O)[C@H](C)NC(=O)[C@@H]3CCCCN3C(=O)[C@@H]3CCCN3C2=O)cc1 [Compound 6, (S)—N-((2R,6S,8aS,14aS,20S,23aS)-2,6-Dimethyl-5,8,14,19,23-Pentaoxooctadecahydro-1H,5H,14H,19H-Pyrido[2,1-1]Dipyrrolo[2,1-C:2′,1′-L][1]Oxa[4,7,10,13]Tetraazacyclohexadecin-20-Yl)-2-(3-(4-Methoxyphenyl)Ureido)-3-Phenylpropanamide] |  |  |  | 3.13 µM (≈ 2.42 µg/mL) | 50 µM | 0.2 µM (≈ 0.155 µg/mL) | 1.56 µM (≈ 1.21 µg/mL) | 0.78 µM (≈ 0.604 µg/mL) | 2 ± 0.1 µM | 
C[C@@H]1C[C@H]2C(=O)OC[C@H](NC(=O)[C@H](Cc3ccccc3)NC(=O)Nc3ccccc3Cl)C(=O)N3CCC[C@H]3C(=O)N3CCCC[C@H]3C(=O)N[C@@H](C)C(=O)N2C1 [Compound 7, (S)-2-(3-(2-Chlorophenyl)Ureido)-N-((2R,6S,8aS,14aS,20S,23aS)-2,6-Dimethyl-5,8,14,19,23-Pentaoxooctadecahydro-1H,5H,14H,19H-Pyrido[2,1-I]Dipyrrolo[2,1-C:2′,1′-L][1]Oxa[4,7,10,13]Tetraazacyclohexadecin-20-Yl)-3-Phenylpropanamide] |  |  |  | 12.5 µM (≈ 9.73 µg/mL) | 200 µM | 0.78 µM (≈ 0.607 µg/mL) | 6.25 µM (≈ 4.86 µg/mL) | 3.13 µM (≈ 2.44 µg/mL) | 34.6 ± 6.8 µM | 
C[C@@H]1C[C@H]2C(=O)OC[C@H](NC(=O)[C@H](Cc3ccccc3)NC(=O)Nc3cccc(Cl)c3)C(=O)N3CCC[C@H]3C(=O)N3CCCC[C@H]3C(=O)N[C@@H](C)C(=O)N2C1 [Compound 9, (S)-2-(3-(3-Chlorophenyl)Ureido)-N-((2R,6S,8aS,14aS,20S,23aS)-2,6-Dimethyl-5,8,14,19,23-Pentaoxooctadecahydro-1H,5H,14H,19H-Pyrido[2,1-I]Dipyrrolo[2,1-C:2′,1′-L][1]Oxa[4,7,10,13]Tetraazacyclohexadecin-20-Yl)-3-Phenylpropanamide] |  |  |  | 3.13 µM (≈ 2.44 µg/mL) | 25 µM | 0.78 µM (≈ 0.607 µg/mL) | 1.56 µM (≈ 1.21 µg/mL) | 1.56 µM (≈ 1.21 µg/mL) | 1 ± 0.1 µM | 
C[C@@H]1C[C@H]2C(=O)OC[C@H](NC(=O)[C@H](Cc3ccccc3)NC(=O)Nc3ccc4c(c3)CCN4C)C(=O)N3CCC[C@H]3C(=O)N3CCCC[C@H]3C(=O)N[C@@H](C)C(=O)N2C1 [Compound 11, (S)—N-((2R,6S,8aS,14aS,20S,23aS)-2,6-Dimethyl-5,8,14,19,23-Pentaoxooctadecahydro-1H,5H,14H,19H-Pyrido[2,1-I]Dipyrrolo[2,1-C:2′,1′-L][1]Oxa[4,7,10,13]Tetraazacyclohexadecin-20-Yl)-2-(3-(1-Methylindolin-5-Yl)Ureido)-3-Phenylpropanamide] |  |  |  | 2.5 µM (≈ 2 µg/mL) |  | 0.3 µM (≈ 0.24 µg/mL) | 1.25 µM (≈ 0.999 µg/mL) | 0.6 µM (≈ 0.479 µg/mL) | 2.3 ± 0.3 µM | 
C[C@@H]1NC(=O)[C@@H]2CCCCN2C(=O)[C@@H]2CCCN2C(=O)[C@@H](NC(=O)[C@H](Cc2cc(F)cc(F)c2)NC(=O)Nc2ccc3c(c2)OCO3)[C@H](C)OC(=O)[C@@H]2CCCN2C1=O [Compound 17, (S)-2-(3-(Benzo[D][1,3]Dioxol-5-Yl)Ureido)-3-(3,5-Difluorophenyl)-N-((6S,8aS,14aS,20S,21 S,23aS)-6,21-Dimethyl-5,8,14,19,23-Pentaoxooctadecahydro-1H,5H,14H,19H-Pyrido[2,1-I]Dipyrrolo[2,1-C:2′,1′-L][1]Oxa[4,7,10,13]Tetraazacyclohexadecin-20-Yl)Propanamide] | 0.8 µM (≈ 0.659 µg/mL) | 200 µM | 8.1 ± 1.1 h |  |  |  |  |  |  | 3.6 ± 0.6 µM
Cc1ccc(NC(=O)N[C@@H](Cc2cc(F)cc(F)c2)C(=O)N[C@H]2COC(=O)[C@@H]3C[C@@H](C)CN3C(=O)[C@H](C)NC(=O)[C@@H]3CCCCN3C(=O)[C@@H]3CCCN3C2=O)cc1 [Compound 24, (S)-3-(3,5-Difluorophenyl)-N-((2R,6S,8aS,14aS,20S,23aS)-2,6-Dimethyl-5,8,14,19,23-Pentaoxooctadecahydro-1H,5H,14H,19H-Pyrido[2,1-I]Dipyrrolo[2,1-C:2′,1′-L][1]Oxa[4,7,10,13]Tetraazacyclohexadecin-20-Yl)-2-(3-(P-Tolyl)Ureido)Propanamide] |  |  |  | 0.5 µM (≈ 0.397 µg/mL) |  |  | 2.2 µM (≈ 1.75 µg/mL) |  | 3.3 ± 0.2 µM | 
